Where two headings read alike, the source gives them in different places.

Holding throughout (format): binding
Assay [1] deals with T1, HeLa cell extract proteins (Homo sapiens, UniProt P62826).
T1 construct: endogenous in cells; host or cells: HeLa cell extract

For assay [2], the target named is T2, HeLa cell extract proteins (Homo sapiens, UniProt P24666).
T2 construct: endogenous in cells; host or cells: HeLa cell extract
T2 sequence (P24666 1-158): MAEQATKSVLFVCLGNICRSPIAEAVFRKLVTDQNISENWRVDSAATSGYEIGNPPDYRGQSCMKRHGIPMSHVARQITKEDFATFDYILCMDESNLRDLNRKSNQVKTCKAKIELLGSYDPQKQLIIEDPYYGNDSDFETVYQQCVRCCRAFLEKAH

The target of assay [3] is T3, HeLa cell extract proteins (Homo sapiens, UniProt Q14697).
T3 construct: endogenous in cells; host or cells: HeLa cell extract
T3 sequence (Q14697 29-944): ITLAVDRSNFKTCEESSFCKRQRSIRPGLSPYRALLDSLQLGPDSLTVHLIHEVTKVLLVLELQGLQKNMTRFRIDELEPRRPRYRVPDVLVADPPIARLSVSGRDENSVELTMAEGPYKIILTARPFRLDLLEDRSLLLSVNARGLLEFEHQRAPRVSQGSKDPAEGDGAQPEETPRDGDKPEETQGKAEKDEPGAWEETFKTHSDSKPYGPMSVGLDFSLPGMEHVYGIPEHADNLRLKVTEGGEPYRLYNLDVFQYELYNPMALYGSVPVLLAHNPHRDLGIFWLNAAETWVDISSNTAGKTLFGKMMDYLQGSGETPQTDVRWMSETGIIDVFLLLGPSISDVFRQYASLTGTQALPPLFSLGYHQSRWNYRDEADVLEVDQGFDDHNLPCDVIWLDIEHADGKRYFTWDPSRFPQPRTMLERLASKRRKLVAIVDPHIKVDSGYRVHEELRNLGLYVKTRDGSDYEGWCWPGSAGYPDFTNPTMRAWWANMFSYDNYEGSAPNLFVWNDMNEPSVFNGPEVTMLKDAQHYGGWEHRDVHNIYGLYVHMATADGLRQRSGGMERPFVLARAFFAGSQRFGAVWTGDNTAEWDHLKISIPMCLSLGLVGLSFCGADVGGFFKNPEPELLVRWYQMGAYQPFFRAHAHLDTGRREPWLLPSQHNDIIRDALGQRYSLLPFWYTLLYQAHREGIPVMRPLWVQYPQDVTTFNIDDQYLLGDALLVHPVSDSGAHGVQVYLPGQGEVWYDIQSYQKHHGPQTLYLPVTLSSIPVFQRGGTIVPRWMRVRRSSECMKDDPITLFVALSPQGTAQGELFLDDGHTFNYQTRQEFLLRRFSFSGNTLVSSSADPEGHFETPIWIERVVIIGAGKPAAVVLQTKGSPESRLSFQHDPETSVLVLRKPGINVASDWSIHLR

Assay [4] addresses T4, HeLa cell extract proteins (Homo sapiens, UniProt Q14978).
T4 construct: endogenous in cells; host or cells: HeLa cell extract
T4 sequence (Q14978 1-699): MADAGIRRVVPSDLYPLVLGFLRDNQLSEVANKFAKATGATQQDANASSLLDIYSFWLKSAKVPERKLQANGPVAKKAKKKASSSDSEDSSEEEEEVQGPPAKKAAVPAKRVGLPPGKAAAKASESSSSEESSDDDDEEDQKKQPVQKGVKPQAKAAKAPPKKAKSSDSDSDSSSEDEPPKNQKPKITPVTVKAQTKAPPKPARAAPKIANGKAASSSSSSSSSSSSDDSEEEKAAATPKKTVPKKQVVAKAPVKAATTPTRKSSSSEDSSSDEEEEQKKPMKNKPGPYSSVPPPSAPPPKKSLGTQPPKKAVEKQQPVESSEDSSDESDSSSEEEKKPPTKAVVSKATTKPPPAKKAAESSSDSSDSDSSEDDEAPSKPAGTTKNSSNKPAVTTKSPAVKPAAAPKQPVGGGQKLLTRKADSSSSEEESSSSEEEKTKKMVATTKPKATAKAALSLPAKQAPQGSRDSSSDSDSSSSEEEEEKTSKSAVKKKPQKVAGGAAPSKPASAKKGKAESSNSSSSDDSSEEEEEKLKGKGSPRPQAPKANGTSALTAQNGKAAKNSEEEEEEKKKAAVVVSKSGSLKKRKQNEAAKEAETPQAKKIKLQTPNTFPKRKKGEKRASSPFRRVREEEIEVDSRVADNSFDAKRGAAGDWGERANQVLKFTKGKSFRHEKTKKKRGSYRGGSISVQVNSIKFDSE

In assay [5] the target is T5, HeLa cell extract proteins (Homo sapiens, UniProt Q8WWC4).
T5 construct: endogenous in cells; host or cells: HeLa cell extract
T5 sequence (Q8WWC4 97-291): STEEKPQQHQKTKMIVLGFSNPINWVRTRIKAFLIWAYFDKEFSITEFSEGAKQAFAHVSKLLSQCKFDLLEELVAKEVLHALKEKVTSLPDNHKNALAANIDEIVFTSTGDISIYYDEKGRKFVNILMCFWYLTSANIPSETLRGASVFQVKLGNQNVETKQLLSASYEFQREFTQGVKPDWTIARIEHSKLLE

The target of assay [6] is T6, HeLa cell extract proteins (Homo sapiens, UniProt Q01628).
T6 construct: endogenous in cells; host or cells: HeLa cell extract
T6 sequence (Q01628 whole entry): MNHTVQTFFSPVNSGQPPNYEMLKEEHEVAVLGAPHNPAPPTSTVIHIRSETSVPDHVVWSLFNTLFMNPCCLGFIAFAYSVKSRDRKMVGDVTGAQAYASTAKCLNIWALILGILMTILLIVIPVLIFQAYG

Take `Nc1nc2c(c(=O)[nH]1)N(C=O)C(CNc1ccc(C(=O)N[C@@H](CCC(=O)O)C(=O)O)cc1)CN2` (stereo partly drawn) [LEU, leucovorin]: the “fold changes relative to vehicle control” value in assay [1] (HeLa, protein RAN) is recorded as 0.98; in assay [2] (protein ACP1, HeLa) it was 0.72; in assay [3] (HeLa, protein GANAB), 0.99; in assay [4] (protein NOLC1, HeLa), 0.93; in assay [5] (protein C2ORF47, HeLa), 0.93; in assay [6] (HeLa, protein IFITM3), 1.21.

Take `Nc1nc2[nH]cc(CCc3ccc(C(=O)N[C@@H](CCC(=O)O)C(=O)O)cc3)c2c(=O)[nH]1` [PTX, pemetrexed]: the “fold changes relative to vehicle control” value in assay [1] is on record as 1; in assay [2] it was 0.84; in assay [3], 1; in assay [4], 0.87; in assay [5], 0.92; in assay [6] it was 1.32.

`CCCCCCOc1ccc(Cc2cnc(N)nc2N)cc1` [compound 1]: the “fold changes relative to vehicle control” value in assay [1] (protein RAN, HeLa) worked out at 1.1; in assay [2] (HeLa, protein ACP1), 0.77; in assay [3] (protein GANAB, HeLa), 1.08; in assay [4] (protein NOLC1, HeLa) it was 0.9; in assay [5] (HeLa, protein C2ORF47), 1.1; in assay [6] (captured protein IFITM3, HeLa), 1.07.

`CCCCCCOc1cccc(Cc2cnc(N)nc2N)c1` [compound 2]: the “fold changes relative to vehicle control” value in assay [1] (protein RAN, HeLa) amounted to 1.8; in assay [2] (HeLa, protein ACP1), 0.98; in assay [3] (protein GANAB, HeLa), 1.28; in assay [4] (protein NOLC1, HeLa) it was 1.44; in assay [5] (HeLa, protein C2ORF47), 1.06; in assay [6] (captured protein IFITM3, HeLa), 0.65.

In the case of `Nc1nc2cccc(-c3ccccc3)c2n1Cc1ccc(Cl)c(Cl)c1` [compound 3], the “fold changes relative to vehicle control” value worked out at 0.93 in assay [1] (protein RAN, HeLa); 0.71 in assay [2] (HeLa, protein ACP1); 0.94 in assay [3] (protein GANAB, HeLa); 0.96 in assay [4] (protein NOLC1, HeLa); 1.11 in assay [5] (HeLa, protein C2ORF47); 0.9 in assay [6] (captured protein IFITM3, HeLa).

Take `NCCOCCOCC(=O)Nc1nc2ncc(CNc3ccc(C(=O)NC(CCC(=O)O)C(=O)O)cc3)nc2c(=O)[nH]1` (stereo not drawn) [compound 6]: the “fold changes relative to vehicle control” value in assay [1] (HeLa, protein RAN) is 1.11; in assay [2] (protein ACP1, HeLa) it was 1.04; in assay [3] (HeLa, protein GANAB), 1.1; in assay [4] (protein NOLC1, HeLa) it was 0.96; in assay [5] (protein C2ORF47, HeLa) it was 0.99; in assay [6] (HeLa, protein IFITM3), 1.14.

On to `NCCCNc1ccc(C(=O)NC(CCC(=O)O)C(=O)O)cc1` (stereo not drawn) [compound 7], for which the “fold changes relative to vehicle control” value in assay [1] (HeLa, protein RAN) is recorded as 0.95; in assay [2] (protein ACP1, HeLa), 0.71; in assay [3] (HeLa, protein GANAB), 0.97; in assay [4] (protein NOLC1, HeLa), 0.9; in assay [5] (protein C2ORF47, HeLa), 1.06; in assay [6] (HeLa, protein IFITM3) it was 1.3.

The record behind these values is article PMC6199744, “Development of Chemical Proteomics for the Folateome and Analysis of the Kinetoplastid Folateome” (ACS Infectious Diseases, 2018).
